In article PMC9995496, “A screen for MeCP2-TBL1 interaction inhibitors using a luminescence-based assay” (Scientific Reports, 2023):

Target: T1, MeCP2-TBL1 interaction (MeCP2-SmBiT / TBL1-LgBiT) (Mus musculus, UniProt Q9QXE7)
T1 construct: expressed in transfected cells; crude lysate used as a cell-free assay
T1 sequence (Q9QXE7 166-527): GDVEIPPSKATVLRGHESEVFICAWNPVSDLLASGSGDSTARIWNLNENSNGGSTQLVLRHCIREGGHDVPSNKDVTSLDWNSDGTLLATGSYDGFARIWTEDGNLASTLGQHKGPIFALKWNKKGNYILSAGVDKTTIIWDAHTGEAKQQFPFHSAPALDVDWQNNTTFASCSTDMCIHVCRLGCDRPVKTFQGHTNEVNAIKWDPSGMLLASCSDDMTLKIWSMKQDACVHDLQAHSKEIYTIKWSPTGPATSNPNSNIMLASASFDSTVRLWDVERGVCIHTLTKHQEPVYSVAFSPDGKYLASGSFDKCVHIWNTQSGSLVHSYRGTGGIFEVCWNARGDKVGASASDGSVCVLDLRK
Experiment: MeCP2-TBL1 NanoLuc luciferase complementation assay (cell-free, extracts of transfected HEK293 cells);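 also: each compound tested at 20 µM final concentration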
Type: binding, human
Outline: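 Cell-free split NanoLuc: lysate of HEK293 cells co-expressing the MeCP2 C-terminal half-SmBiT and TBL1 WD domain-LgBiT, mixed 1:1 with furimazine. After 30 min at room temperature, luminescence was plate-median normalized.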

[1] = primary screen of the Asinex library, sheet "Sargen output Asinex library", one well per compound
[2] = primary screen of the Asinex library, sheet "Sargen output Asinex library", one well per compound, Batch Ref. 1
[3] = primary screen of Asinex library, single well per compound

O=C1OC2(CCN(C(=O)C3(c4ccccc4)CCCC3)C2)CN1Cc1ccc(F)cc1 (centres unmarked) [BDH_32289921]
Inhibition percent [1]: 0.62%

O=C(CN1CCc2ccccc2C1)N1CCCC2(CC1)CN(c1cccc(Cl)c1)C(=O)O2 (centres unmarked) [BDH_32295686]
Inhibition percent [2]: 0.75%

O=C(c1ccc(Cc2ccc(F)cc2)nc1)N1CCCC2(CC1)CN(c1ccccc1)C(=O)O2 (centres unmarked) [BDH_32295955]
Inhibition percent [3]: -2.84

O=C(c1ccc(Cc2cccc(F)c2)nc1)N1CCCC2(CC1)CN(c1ccccc1)C(=O)O2 (centres unmarked) [BDH_32296010]
Inhibition percent [3]: -0.22

COc1ccccc1Cc1ccc(C(=O)N2CCCC3(CC2)CN(c2ccccc2)C(=O)O3)cn1 (centres unmarked) [BDH_32296020]
Inhibition percent [1]: -0.57%

O=C1COC2(CCCN(C(=O)c3cccc4cccnc34)CC2)CN1CCc1ccccc1 (centres unmarked) [BDH_32296359]
Inhibition percent [1]: -0.70%

O=C(c1ccnc(Cc2cccc(F)c2)c1)N1CCC[C@]2(C[C@@H](Oc3ccc(F)cc3)CO2)C1 [BDH_32304392]
Inhibition percent [1]: 5.07%

Cn1cc(CC(=O)N2C[C@@H](c3cccc(F)c3)[C@@]3(CCCCC(=O)N3)C2)c2ccccc21 [BDH_32306274]
Inhibition percent [2]: 1.56%

CC(C)(NC(=O)c1ccccc1)C(=O)N1C[C@@H](c2ccc(F)cc2)[C@@]2(CCCC(=O)N2)C1 [BDH_32326628]
Inhibition percent [1]: 0.18%

CC(C)(NC(=O)c1ccccc1)C(=O)N1C2CCC1CC(Cc1ccc3ccncc3c1)C2 (centres unmarked) [BDH_32326823]
Inhibition percent [1]: -1.86%

CC(C)(NC(=O)Cc1ccccc1)C(=O)N1CCCC(Cc2cccc3ncccc23)C1 (centres unmarked) [BDH_32327552]
Inhibition percent [3]: -4.87

CC(C)(NC(=O)Cc1ccccc1)C(=O)N1CCCC(Cc2cccn3ccnc23)CC1 (centres unmarked) [BDH_32327598]
Inhibition percent [3]: -2.43

CC(C)(NC(=O)CCc1ccccc1)C(=O)N1CCC(Cc2ccc3ncccc3c2)CC1 [BDH_32328019]
Inhibition percent [3]: -2.64

CN(C)c1cncc(C2CCCN2C(=O)C2(C)CCN(C(=O)c3cccc(F)c3)CC2)n1 (centres unmarked) [BDH_32329258]
Inhibition percent [1]: -1.39%

Cc1cccc(Oc2cncc(C3CCCN(C(=O)c4ccc(-n5cccn5)nc4)C3)n2)c1 (centres unmarked) [BDH_32330488]
Inhibition percent [1]: 5.13%

O=C1OC2(CCCN(C(=O)c3ccc(-n4cccn4)nc3)CC2)CN1Cc1ccccc1 (centres unmarked) [BDH_32330719]
Inhibition percent [1]: -2.98%

CC(=O)NC(F)(Cc1ccccc1)C(=O)N1CCC(Cc2cccc3cccnc23)CC1 (centres unmarked) [BDH_32336432]
Inhibition percent [1]: 15.90%

COc1ccc(C2(C(=O)N3CCCCC3CCNC(=O)c3ccccc3)CCCC2)cc1 (centres unmarked) [BDH_32336950]
Inhibition percent [2]: 6.01%

O=C(c1ccccc1Cn1ccnc1)N1CCCC(c2cncc(Oc3ccccc3)n2)C1 (centres unmarked) [BDH_32338420]
Inhibition percent [2]: 3.75%

Cc1nccn1Cc1ccccc1C(=O)N1CCCC(Cc2cccc3cccnc23)C1 (centres unmarked) [BDH_32339247]
Inhibition percent [1]: -0.91%

Cc1nccn1Cc1ccccc1C(=O)N1CCCC(Cc2cccc3cccnc23)CC1 (centres unmarked) [BDH_32339298]
Inhibition percent [1]: 3.41%

Cc1nccn1Cc1ccccc1C(=O)N1CCCC(Cc2cccc3ccncc23)CC1 (centres unmarked) [BDH_32339307]
Inhibition percent [3]: -0.56

O=C(c1cccc(Cn2ccnc2)c1)N1CCCC(c2nccnc2Oc2ccccc2)C1 (centres unmarked) [BDH_32339912]
Inhibition percent [1]: -0.06%

C[C@]12C[C@@H](Cc3ccccc3)N(C(=O)c3cccc(Cn4ccnc4)c3)[C@H]1CCCC(=O)N2 [BDH_32339936]
Inhibition percent [3]: 5.72

Cc1cccc(Oc2cncc(C3CCCN(C(=O)c4cccc(-n5cnnc5)c4)C3)n2)c1 (centres unmarked) [BDH_32340252]
Inhibition percent [1]: -3.70%

O=C(c1cccc(-n2cnnc2)c1)N1CCOCC(Cc2cccc3occc23)C1 (centres unmarked) [BDH_32340409]
Inhibition percent [1]: -8.70%

O=C(c1ccccc1Cn1cccn1)N1CCCC1c1cncc(Cc2cccc(F)c2)n1 (centres unmarked) [BDH_32340865]
Inhibition percent [1]: 0.32%

O=C(N1CCC(Cc2ccc3ncccc3c2)CC1)C1(c2ccccc2)CCOCC1 [BDH_32341682]
Inhibition percent [3]: 1.41

O=C(N1CCC(Cc2cccc3cccnc23)CC1)C1(c2ccccc2)CCOCC1 [BDH_32341683]
Inhibition percent [3]: 6.68

COc1ccc(C(=O)N2CCCC(Cc3ccccn3)C2)cc1NCc1cccnc1 (centres unmarked) [BDH_32341951]
Inhibition percent [3]: -2.98

O=C(c1ccccc1CN1CCOCC1)N1CCCC(Cc2cnc3ccccc3c2)CC1 (centres unmarked) [BDH_32342370]
Inhibition percent [1]: -1.09%

O=C(c1ccccc1CN1CCCC1)N1CCC2(CC1)COC(Cc1cccc(F)c1)C2 (centres unmarked) [BDH_32342523]
Inhibition percent [1]: 5.16%

Cc1ccc(C2(C(=O)N3CCC4(CC3)CC(Oc3ccccc3)CO4)CCOCC2)cc1 (centres unmarked) [BDH_32343765]
Inhibition percent [3]: 1.12

COc1ccc(C2(C(=O)N3CCC(Cc4ccc5ncccc5c4)CC3)CCOCC2)cc1 [BDH_32344075]
Inhibition percent [1]: -2.33%

COc1ccc(C2(C(=O)N3CCC(Cc4cccc5cccnc45)CC3)CCOCC2)cc1 [BDH_32344076]
Inhibition percent [1]: 3.92%

CN(C)c1cncc(C2CCCN2C(=O)c2ccccc2OCCN2CCOCC2)n1 (centres unmarked) [BDH_32345043]
Inhibition percent [3]: 1.00

CN1CCN(c2cc(C(=O)N3CCCCC3CCNC(=O)c3ccccc3)ccn2)CC1 (centres unmarked) [BDH_32345153]
Inhibition percent [3]: -1.36

c1ccc(COc2cccc(CN3CCOCC(Cc4ccc5nccn5n4)C3)c2)nc1 (centres unmarked) [BDH_32351403]
Inhibition percent [1]: -0.41%

O=C1CCCC[C@]2(CN(Cc3ccnc(N4CCOCC4)n3)C[C@H]2c2cccc(F)c2)N1 [BDH_32352634]
Inhibition percent [1]: -4.25%

O=C1CCCC[C@]2(CN(Cc3ccnc(N4CCCCC4)n3)C[C@H]2c2ccccc2)N1 [BDH_32353018]
Inhibition percent [3]: -0.90

O=C1CCCC[C@]2(CN(Cc3ccnc(N4CCCCC4)n3)C[C@H]2c2cccc(F)c2)N1 [BDH_32353019]
Inhibition percent [2]: 1.21%

O=C(c1ccccc1OCCN1CCOCC1)N1CCCC(Cc2ccnc3ccccc23)CC1 (centres unmarked) [BDH_32353619]
Inhibition percent [1]: -1.00%

O=C(c1ccccc1OCCN1CCOCC1)N1CCCC(Cc2cccc3cccnc23)CC1 (centres unmarked) [BDH_32353622]
Inhibition percent [2]: 2.11%

O=C(c1ccccc1CN1CCCC1)N1CCCC(c2cccc(Cc3ccccc3F)n2)C1 (centres unmarked) [BDH_32353816]
Inhibition percent [1]: 1.91%

CC(C)(NC(=O)c1cccc(F)c1)C(=O)N1CCC(c2cccc(Cc3ccccc3)n2)CC1 [BDH_32354126]
Inhibition percent [1]: -0.56%

Cc1nonc1COc1ccccc1C(=O)N1CCCC(Cc2ccnc3ccccc23)CC1 (centres unmarked) [BDH_32354216]
Inhibition percent [1]: -0.73%

Cc1nonc1COc1ccccc1C(=O)N1CCCC(Cc2cccc3cccnc23)CC1 (centres unmarked) [BDH_32354219]
Inhibition percent [1]: 4.81%

Cc1noc(C)c1COc1cccc(C(=O)N2CCCC(Cc3cccc4cnccc34)CC2)c1 (centres unmarked) [BDH_32354458]
Inhibition percent [2]: 1.54%

CN1CCC(Cc2cccc(F)c2)(C(=O)N2CCCC(Cc3cccc4ncccc34)C2)CC1 (centres unmarked) [BDH_32354496]
Inhibition percent [1]: -4.55%

CN1CCC(Cc2cccc(F)c2)(C(=O)N2CCC(Cc3cccc4cccnc34)CC2)CC1 [BDH_32354499]
Inhibition percent [1]: -1.74%

CN1CCC(Cc2ccc(F)cc2)(C(=O)N2CCC(Cc3cccc4cccnc34)CC2)CC1 [BDH_32354505]
Inhibition percent [1]: -1.95%

CC(C)(NC(=O)COc1ccccc1)C(=O)N1CCC(Cc2cccc3ncccc23)CC1 [BDH_32354908]
Inhibition percent [3]: -2.23

Cc1nonc1COc1ccccc1C(=O)N1CCCC(Cc2ccc3ccncc3c2)CC1 (centres unmarked) [BDH_32355894]
Inhibition percent [2]: 5.62%

Cc1ccc(Oc2ncccc2C(=O)N2CCC(c3cccc(Cc4ccccc4)n3)CC2)cn1 [BDH_32356013]
Inhibition percent [2]: 10.27%

O=C(CC1CCN(C(=O)C2(c3ccc(F)cc3)CCCC2)CC1)Nc1ccc2nccnc2c1 [BDH_32356175]
Inhibition percent [1]: 0.45%

Cc1nonc1COc1ccccc1C(=O)N1C2CCC1CC(Cc1cnc3ccccc3c1)C2 (centres unmarked) [BDH_32356179]
Inhibition percent [3]: 3.35

Cc1cc(C)n(-c2cccc(C(=O)N3CCCC(c4cncc(Oc5ccccc5)n4)C3)c2)n1 (centres unmarked) [BDH_32356802]
Inhibition percent [3]: -1.24

O=C(NCCC1CCCCN1C(=O)c1ccnc(Oc2cccc(F)c2)c1)c1ccccc1 (centres unmarked) [BDH_32356851]
Inhibition percent [1]: -4.31%

CN1CCCC(CCCc2cnccn2)(C(=O)N2CCC(Cc3cccc4cccnc34)CC2)C1 (centres unmarked) [BDH_32356918]
Inhibition percent [1]: -2.36%

O=C(c1cccc(Nc2ncccn2)c1)N1C2CCC1CC(Cc1ccc3ccncc3c1)C2 (centres unmarked) [BDH_32356948]
Inhibition percent [3]: 3.03

Cc1ccc(Oc2cc(C)nc(C3CCCCN3C(=O)c3ccnc(-c4cnn(C)c4)c3)n2)cc1 (centres unmarked) [BDH_32357088]
Inhibition percent [1]: 0.88%

O=C1OC2(CCCN(Cc3ccccc3OCc3ccccn3)CC2)CN1c1ccc(F)cc1 (centres unmarked) [BDH_32357695]
Inhibition percent [3]: 1.61

O=C(c1ccccc1OCCN1CCOCC1)N1CCCC(Cc2ccc3ncccc3c2)C1 (centres unmarked) [BDH_32358044]
Inhibition percent [1]: -2.19%

Cc1cccc(Oc2cncc(C3CCCN(C(=O)c4ccnc(N5CCN(C)CC5)c4)C3)n2)c1 (centres unmarked) [BDH_32358106]
Inhibition percent [2]: 0.42%

Cc1cc(Oc2ccccc2)nc(C2CCN(C(=O)c3ccnc(N4CCN(C)CC4)c3)CC2)n1 [BDH_32358107]
Inhibition percent [1]: -1.62%

O=C1CCCC[C@]2(CN(Cc3ccccc3OCc3ccccn3)C[C@H]2c2ccc(F)cc2)N1 [BDH_32358404]
Inhibition percent [1]: 1.07%

O=C1CCCN1CCOc1cccc(C(=O)N2CCCC(Cc3ccnc4ccccc34)CC2)c1 (centres unmarked) [BDH_32358595]
Inhibition percent [3]: -2.39

O=C1CCCN1CCOc1cccc(C(=O)N2CCCC(Cc3cnc4ccccc4c3)CC2)c1 (centres unmarked) [BDH_32358596]
Inhibition percent [1]: -12.20%
